Our source for the IC50 and inhibition values is patent US7528132B2, “Kinase inhibitors” (Schering Corporation, priority 2005, dated 2009).

For the test, the target named is T1, Akt1 (Homo sapiens, UniProt P31749).
T1 construct: made in house; host or cells: Sf9 insect cells (baculovirus, pBlueBacHis2B)
Kind of test: Akt1 kinase assay (33P phosphorylation of biotinylated peptide, Flash plates). The class given is biochemical. As to conditions: for inhibition at 1.1 µg/mL: assayed at a concentration of 1.1 mcg/mL. From the text:
The assay described below measures the phosphorylation of a biotinylated peptide by active recombinant Akt1 and other kinase isoforms. The biotinylated peptide contains a consensus sequence derived from Akt substrate Gsk3 (Glycogen synthase kinase 3). The ^33P-labeled peptide substrate was captured by streptavidin-coated Flash plates.
Active recombinant Akt1 was expressed in Sf9 insect cells and purified as described by Kumar et al., Biochim. Biophys. Acta. Jun. 15, 2001, 1526(3), 257-268. Biotinylated peptide of the sequence Bio-ahx-RPRAASF was purchased from Syn Pep (Dublin, Calif., USA).
Cloning and Expression of Human Akt1 Sf9 Cells
Human Akt1 cDNA was amplified from a marathon-ready human lung cDNA library (Clonetech) using nested oligo primers as described below. The first round of amplification was carried out using the following primers; Akt1F1 ([…]) and Akt1R1 (TCCATC […]) and for the second round amplification, the primers of the following sequence were used; Akt1F2 (GGATCCTCGG […]) and AKT1R2 (GGTACCATCGTC […]). The PCR product was subcloned into pCRScript plasmid as a BamHI/KpnI fragment and the sequence of the cDNA was confirmed by DNA sequencing. This plasmid was used as a template for reamplification of Akt1 using appropriate primers for subcloning into pBlueBaHis2B into BamH1/EcoRI sites to generate an in frame fusion to (His)6 tag and an anti-Xpress antibody epitope tag at the N-terminus. This construct was sequenced to verify the junction sequences and used for generating a recombinant baculovirus. Growth of the recombinant virus, amplification and determination of viral titer were carried out according to the instructions from the manufacturer (InVitrogen, CA).
Purification of Akt1 from Sf9 Cells
Viral stocks were used to infect large scale Sf9 cells at a multiplicity of infection (MOI) of 2.5. Cells were maintained at 27° C. for 60 h and okadaic acid was added to the cultures to a concentration of 50 nM. Cells were harvested 4 h hours later by centrifugation at 1200 rpm for 30 min followed by freezing at −80° C. until further use. All purification steps were carried out at 4° C. Whole cell pellets were suspended in buffer A (20 mM sodium phosphate buffer pH 7.8, 500 mM NaCl, 1 mM sodium vanadate, 5 mM sodium fluoride, 40 mM β-glycerophosphate, 10 mM imidazole and protease inhibitor cocktail) and lysed using a microfluidizer. The cell extract was centrifuged at 16,000×g for 10 min to remove the debris and directly loaded onto Ni-NTA Superflow resin using a FPLC pump operated at 1 ml/min. The column was washed once with buffer A, once with wash buffer B (20 mM sodium phosphate pH 6.0, 1 mM sodium vanadate, 5 mM sodium fluoride and protease cocktail) and once with wash buffer B containing 0.05% Tween-20 followed by washing with buffer A until OD260 returned to basal level. Proteins were eluted with buffer A containing 200 mM imidazole. Fractions were analyzed by electrophoresis on 10% denaturing polyacrylamide gels and fractions containing 85% pure protein band at 60 KDa were pooled and dialyzed against buffer C (20 mM Tris-HCl pH 7.5, 0.5 mM EDTA,-2 mM DTT, 145 mM NaCl, 0.1 mM sodium vanadate, 5 mM sodium fluoride, 10 mM, β-glycerophosphate and 20% glycerol). Purified protein was stored as aliquots at −80° C. Protein concentrations were determined using BCA protein assay reagent A (Catalog #23228). To examine the identity of the proteins, 2 μg of purified protein was electrophoresed on SDS-polyacrylamide gels and stained with coomassie blue dye or transferred to nitrocellulose membrane and probed with anti-Akt and anti-phospho-specific Akt antibodies using enhanced chemiluminescence (ECL) reagent according to the protocol described by the manufacturer (Amersham).
The kinase assay was performed in 96 well plates at room temperature. Assay solutions and plates were preincubated at room temperature for 5 min. […]

Where [1] appears, read: read-out: IC50 rating (AKT1 inhibition).
The mark [2] stands for this setting: read-out: IC50 (AKT1 inhibition).

One may read the IC50 as the point on the concentration scale where inhibition reaches its midpoint. As a reminder, the inhibition is the relative decrease from the control value, in per cent. The low end stands for a response near the control, the high end for a response far below the control.

Where two headings read alike, the source gives them in different places.

T1 sequence (P31749 whole entry): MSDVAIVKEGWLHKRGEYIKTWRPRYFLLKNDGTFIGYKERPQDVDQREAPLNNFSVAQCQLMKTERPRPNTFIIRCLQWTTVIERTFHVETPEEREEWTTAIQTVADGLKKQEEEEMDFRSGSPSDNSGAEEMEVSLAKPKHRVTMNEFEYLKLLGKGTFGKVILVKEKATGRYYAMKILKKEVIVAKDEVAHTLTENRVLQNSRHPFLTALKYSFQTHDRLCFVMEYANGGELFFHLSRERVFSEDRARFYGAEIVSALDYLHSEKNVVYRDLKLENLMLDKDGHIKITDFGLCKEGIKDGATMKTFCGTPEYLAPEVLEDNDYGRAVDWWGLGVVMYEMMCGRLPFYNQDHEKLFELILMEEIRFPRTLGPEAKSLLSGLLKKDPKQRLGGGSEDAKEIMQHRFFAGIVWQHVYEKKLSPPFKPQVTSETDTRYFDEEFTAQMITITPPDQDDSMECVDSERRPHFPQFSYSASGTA

Take `Cc1n[nH]c2ccc(-c3nnc(N)c(N4CCNCC4)n3)cc12` [Compound 1, 6-amino-3-(3-methylindazol-5-yl)-5-(piperazin-1-yl)-[1,2,4]triazine]: the IC50 under setting [1] was 100 to 1000 nM. As to `Cc1n[nH]c2ccc(-c3nnc(N)c(O)n3)cc12` [Compound 2], under setting [1], the IC50 was over 1000 nM. The compound `Cc1n[nH]c2ccc(-c3nnc(NCc4ccccc4)c(N4CCNCC4)n3)cc12` [Compound 3, 6-benzylamino-3-(3-methylindazol-5-yl)-5-(piperazin-1-yl)-[1,2,4]triazine] came in with an inhibition at 1.1 µg/mL of over 90%. Further, under setting [1], the IC50 was under 100 nM. Take `Cc1n[nH]c2ccc(-c3nnc(N(Cc4ccccc4)Cc4ccccc4)c(N4CCNCC4)n3)cc12` [Compound 4, 6-dibenzylamino-3-(3-methylindazol-5-yl)-5-(piperazin-1-yl)-[1,2,4]triazine]: the IC50 under setting [1] was over 1000 nM. For the compound `Cc1n[nH]c2ccc(-c3nnc(N)c(N4CCN[C@@H](Cc5ccccc5)C4)n3)cc12` [Compound 5, 6-amino-5-[(S)-3-benzylpiperazin-1-yl]-3-(3-methylindazol-5-yl)-[1,2,4]triazine], the inhibition at 1.1 µg/mL is over 90%. In addition, the IC50 under setting [1] was under 100 nM. Consider `Cc1n[nH]c2ccc(-c3nnc(N)c(N4CCN[C@H](c5ccccc5)C4)n3)cc12` [Compound 6, 6-amino-3-(3-methylindazol-5-yl)-5-[(R)-3-phenylpiperazin-1-yl]-[1,2,4]triazine], for which, under setting [1], the IC50 lay in the range of 100 to 1000 nM. `Cc1n[nH]c2ccc(-c3nnc(N)c(N4CCN[C@@H](C(C)C)C4)n3)cc12` [Compound 7, 6-amino-5-[(S)-3-isopropylpiperazin-1-yl]-3-(3-methylindazol-5-yl)-[1,2,4]triazine] yielded an inhibition at 1.1 µg/mL of over 90%. Moreover, the IC50 under setting [1] was under 100 nM. Turning to `Cc1n[nH]c2ccc(-c3nnc(N)c(N4CCN[C@@H](CC(C)C)C4)n3)cc12` [Compound 8, 6-amino-5-[(S)-3-isobutylpiperazin-1-yl]-3-(3-methylindazol-5-yl)-[1,2,4]triazine], the inhibition at 1.1 µg/mL was over 90%. Under setting [1], the IC50 is under 100 nM. Take `Cc1n[nH]c2ccc(-c3nnc(N)c(N4CCN[C@H](C)C4)n3)cc12` [Compound 9, 6-amino-3-(3-methylindazol-5-yl)-5-[(R)-3-methylpiperazin-1-yl]-[1,2,4]triazine]: the IC50 under setting [1] was over 1000 nM. As to `Cc1n[nH]c2ccc(-c3nnc(N)c(N4CCCNCC4)n3)cc12` [Compound 10, 6-amino-5-([1,4]diazepan-1-yl)-3-(3-methylindazol-5-yl)-[1,2,4]triazine], the inhibition at 1.1 µg/mL is over 90%. Moreover, the IC50 under setting [1] lay in the range of 100 to 1000 nM.

In the case of `Cc1n[nH]c2ccc(-c3nnc(N)c(N4CC5CC4CN5)n3)cc12` (stereo not shown) [Compound 11, 6-amino-5-(2,5-diazabicyclo[2.2.1]hept-2-yl)-3-(3-methylindazol-5-yl)-[1,2,4]triazine], the IC50 under setting [1] is over 1000 nM. Compound `Cc1n[nH]c2ccc(-c3nncc(N4CCN[C@@H](Cc5ccccc5)C4)n3)cc12` [Compound 12, 3-(3-methylindazol-5-yl)-5-[(S)-3-benzylpiperazin-1-yl]-[1,2,4]triazine] returned an inhibition at 1.1 µg/mL of over 90%. Besides, the IC50 under setting [2] was found to be 2.6 nM. Besides, the IC50 under setting [1] is under 100 nM. `Cc1n[nH]c2ccc(-c3nnc(Cl)c(N4CCN[C@@H](Cc5ccccc5)C4)n3)cc12` [Compound 13, 5-[(S)-3-benzylpiperazin-1-yl]-6-chloro-3-(3-methylindazol-5-yl)-[1,2,4]triazine] showed an inhibition at 1.1 µg/mL of over 90%. Also, the IC50 under setting [1] was under 100 nM. Consider `Cc1n[nH]c2ccc(-c3nnc(N)c(N4CCN[C@@H](C)C4)n3)cc12` [Compound 14, 6-amino-3-(3-methylindazol-5-yl)-5-[(S)-3-methylpiperazin-1-yl]-[1,2,4]triazine], for which the IC50 under setting [1] lay within 100 to 1000 nM. For the compound `Cc1n[nH]c2ccc(-c3nnc(NCc4ccccc4)c(N4CCN[C@@H](C)C4)n3)cc12` [Compound 15, 6-benzylamino-3-(3-methylindazol-5-yl)-5-[(S)-3-methylpiperazin-1-yl]-[1,2,4]triazine], the IC50 under setting [1] fell in the range of 100 to 1000 nM. In the case of `Cc1n[nH]c2ccc(-c3nnc(NCc4ccccc4)c(N4CCN[C@@H](C(C)C)C4)n3)cc12` [Compound 16, 6-benzylamino-5-[(S)-3-isopropylpiperazin-1-yl]-3-(3-methylindazol-5-yl)-[1,2,4]triazine], the inhibition at 1.1 µg/mL is over 90%. Moreover, the IC50 under setting [1] is under 100 nM. With `Cc1n[nH]c2ccc(-c3nnc(NCc4ccccc4)c(N4CCN[C@@H](CC(C)C)C4)n3)cc12` [Compound 17, 6-benzylamino-5-[(S)-3-isobutylpiperazin-1-yl]-3-(3-methylindazol-5-yl)-[1,2,4]triazine], under setting [1], the IC50 was over 1000 nM.

On to `Cc1n[nH]c2ccc(-c3nnc(NCc4ccccc4)c(N4CCN[C@@H](Cc5ccccc5)C4)n3)cc12` [Compound 18, 6-Benzylamino-5-[(S)-3-benzylpiperazin-1-yl]-3-(3-methylindazol-5-yl)-[1,2,4]triazine], for which the IC50 under setting [1] was over 1000 nM. As to `Cc1n[nH]c2ccc(-c3nncc(N4CCN[C@@H](C(C)C)C4)n3)cc12` [Compound 19, 5-[(S)-3-isopropylpiperazin-1-yl]-3-(3-methylindazol-5-yl)-[1,2,4]triazine], the IC50 under setting [1] was under 100 nM. Consider `Cc1n[nH]c2ccc(-c3nnc(Cl)c(N4CCN[C@@H](C(C)C)C4)n3)cc12` [Compound 20, 6-chloro-5-[(S)-3-isopropylpiperazin-1-yl]-3-(3-methylindazol-5-yl)-[1,2,4]triazine], for which the inhibition at 1.1 µg/mL is over 90%. Further, the IC50 under setting [1] is under 100 nM.

Take `Cc1n[nH]c2ccc(-c3nncc(N4CCN[C@@H](Cc5c[nH]c6ccccc56)C4)n3)cc12` [Compound 21, 5-[(S)-3-(3-indolylmethyl)piperazin-1-yl]-3-(3-methylindazol-5-yl)-[1,2,4]triazine]: the IC50 under setting [1] lay within 100 to 1000 nM. Regarding `Cc1n[nH]c2ccc(-c3nnc(Cl)c(N4CCN[C@@H](Cc5c[nH]c6ccccc56)C4)n3)cc12` [Compound 22, 6-chloro-5-[(S)-3-(3-indolylmethyl)piperazin-1-yl]-3-(3-methylindazol-5-yl)-[1,2,4]triazine], the IC50 under setting [1] is over 1000 nM. Turning to `Cc1n[nH]c2ccc(-c3nncc(N4CCN[C@@H](CC(C)C)C4)n3)cc12` [Compound 23, 5-[(S)-3-isobutylpiperazin-1-yl]-3-(3-methylindazol-5-yl)-[1,2,4]triazine], the inhibition at 1.1 µg/mL was over 90%. Moreover, the IC50 under setting [2] was 5.4 nM. Also, the IC50 under setting [1] was under 100 nM. `Cc1n[nH]c2ccc(-c3nnc(Cl)c(N4CCN[C@@H](CC(C)C)C4)n3)cc12` [Compound 24, 6-chloro-5-[(S)-3-isobutylpiperazin-1-yl]-3-(3-methylindazol-5-yl)-[1,2,4]triazine] returned an inhibition at 1.1 µg/mL of over 90%. Also, the IC50 under setting [1] was under 100 nM.

`Cc1n[nH]c2ccc(-c3nnc(Cl)c(N4CCN[C@@H](COCc5ccccc5)C4)n3)cc12` [Compound 25, 5-[(R)-3-(benzyloxymethyl)piperazin-1-yl]-6-chloro-3-(3-methylindazol-5-yl)-[1,2,4]triazine]: the IC50 under setting [1] was over 1000 nM.

For `Cc1n[nH]c2ccc(-c3nncc(N4CCN[C@@H](COCc5ccccc5)C4)n3)cc12` [Compound 26, 5-[(R)-3-(benzyloxymethyl)piperazin-1-yl]-3-(3-methylindazol-5-yl)-[1,2,4]triazine], under setting [1], the half-maximal inhibitory concentration (IC50) is over 1000 nM. For `Cc1n[nH]c2ccc(-c3nncc(N4CCN[C@@H](CO)C4)n3)cc12` [Compound 27], the IC50 under setting [1] was over 1000 nM.
